Measured values from patent US20220009918A1, “Chemical Compounds” (GlaxoSmithKline Intellectual Property Development Limited, priority 2018, published 2022).

The compounds below were run against T1, human H-PGDS (Homo sapiens, UniProt O60760) (assay: H-PGDS RapidFire high throughput mass spectrometry assay). Conditions: inhibition of conversion of PGH2 to PGD2 by H-PGDS; mean pIC50; read-out: Potency Range (mean pIC50) (converted).
T1 construct: Full length human H-PGDS cDNA (Invitrogen Ultimate ORF IOH13026) was amplified by PCR; 6-His (N); TEV protease cleavage site (N); made in house; host or cells: E. coli BL21 (DE3*) for H-PGDS; Sf9 insect cells (baculovirus) for COX-2
T1 sequence (O60760 whole entry): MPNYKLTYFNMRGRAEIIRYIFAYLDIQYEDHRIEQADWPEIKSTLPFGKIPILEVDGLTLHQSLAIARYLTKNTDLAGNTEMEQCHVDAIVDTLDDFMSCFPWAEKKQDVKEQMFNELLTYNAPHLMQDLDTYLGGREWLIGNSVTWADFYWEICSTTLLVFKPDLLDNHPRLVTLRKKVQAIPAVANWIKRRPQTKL
Type: biochemical
Description: H-PGDS RapidFire™ High Throughput Mass Spectrometry Assay
The H-PGDS RapidFire™ mass spectrometric assay monitors conversion of prostaglandin H2 (PGH2) to prostaglandin D2 (PGD2) by haematopoietic prostaglandin D synthase (H-PGDS). In the assay format described here, the substrate (PGH2) is formed in situ by the action of cyclooxygenase-2 on arachidonic acid. This first step is set up to be fast, and generates a burst of PGH2 at ˜10 μM. The PGH2 is then further converted to PGD2 by the H-PGDS enzyme. […] Plates are then read on the RapidFire™ high throughput solid phase extraction system (Agilent) which incorporates a solid phase extraction step coupled to a triple quadrupole mass spectrometer (AB SCIEX). Relative levels of PGD2 and PGF2α, which acts as a surrogate for substrate, are measured and a percent conversion calculated. Inhibitors are characterised as compounds which lower the conversion of PGH2 to PGD2.
Full length human H-PGDS cDNA (Invitrogen Ultimate ORF IOH13026) was amplified by PCR with the addition of a 5′ 6-His tag and TEV protease cleavage site. The PCR product was digested with NdeI and XhoI and ligated into pET22b+ (Merck Novagen®). Expression was carried out in E. coli strain BL21 (DE3*) using auto-induction Overnight Express™ Instant TB medium (Merck Novagen®) supplemented with 1% glycerol. The culture was first grown at 37° C. and the temperature was reduced to 25° C. when OD600 reached 2.0. Cells were harvested by centrifugation after a further 18 hours. 10 g of E. coli cell pellet was suspended to a total volume of 80 mL in lysis buffer (20 mM Tris-Cl pH 7.5, 300 mM NaCl, 20 mM imidazole, 5 mM p-mercaptoethanol, 10% glycerol). 1 mg/mL protease inhibitors (Protease Inhibitor Cocktail Set III, Merck Calbiochem®) and 1 mg/mL lysozyme were added to the cell suspension. The suspension was then sonicated for 5 min (UltraSonic Processor VCX 750, Cole-Parmer Instrument Co.) with a micro probe (50% amplitude, 10 sec on/off) and then centrifuged at 100,000 g for 90 minutes (at 4° C.). The supernatant was loaded onto a Ni-NTA HiTrap column (5 mL, GE Healthcare, pre-equilibrated in lysis buffer). The column was washed with 10 column volumes of lysis buffer and eluted with lysis buffer containing 500 mM imidazole. The pooled protein peak fractions were concentrated using a 10 kDa centrifugal filter at 3500 g and 4° C. (Amicon Ultra-15 centrifugal filter unit with Ultracel-10 membrane from Millipore). Further purification of the concentrated protein was carried out using gel filtration chromatography on a HiLoad 26/600 Superdex 75 preparative grade column (GE Healthcare Life Sciences) using 50 mM Tris pH 7.5, 50 mM NaCl, 1 mM dithiothreitol, 1 mM MgCl2. Fractions containing the protein were pooled, concentrated as described above, and stored at −80° C.
The full length human COX-2 gene (accession number L15326) was amplified by PCR to generate an EcoRI—HindIII fragment containing an in-frame FLAG tag. This was subcloned into pFastBac 1 (Invitrogen). The COX-2 FLAG plasmid was recombined into the baculovirus genome according to the BAC-to-BAC protocol described by Invitrogen. Transfection into Spodoptera frugiperda (Sf9) insect cells was performed using Cellfectin (Invitrogen), according to the manufacturer's protocol. Super Sf9 cells were cultured in EX420 media (SAFC Biosciences) to a density of approximately 1.5×10^6 cells/mL within a wave bioreactor. Recombinant virus was added at a Multiplicity of Infection (MOI) of 5 and the culture was allowed to continue for 3 days. Cells were harvested using a continuous feed centrifuge run at 2500 g at a rate of approximately 2 L/min with cooling. The resultant cell slurry was re-centrifuged in pots (2500 g, 20 min, 4° C.) and the cell paste was stored at −80° C. […]
For O=C(N[C@H]1CCNC1=O)c1cnc(-c2cccc(Cl)c2F)s1 [Example 8, (S)-2-(3-Chloro-2-fluorophenyl)-N-(2-oxopyrrolidin-3-yl)thiazole-5-carboxamide], the IC50 was 10.2 to 100 nM. O=C(N[C@H]1CCNC1=O)c1cnc(-c2cc(Cl)cc(Cl)c2)s1 [Example 9, (S)-2-(3,5-Dichlorophenyl)-N-(2-oxopyrrolidin-3-yl)thiazole-5-carboxamide] was tested, and the IC50 was 1.02 to 10 nM. Work on O=C(N[C@H]1CCNC1=O)c1cnc(-c2cccc(C(F)F)c2)s1 [Example 10, (S)-2-(3-(Difluoromethyl)phenyl)-N-(2-oxopyrrolidin-3-yl)thiazole-5-carboxamide] yielded an IC50 of 10.2 to 100 nM. With C[C@@H]1CNC(=O)[C@H]1NC(=O)c1cnc(-c2cc(F)cc(Cl)c2)s1 [Example 11, 2-(3-Chloro-5-fluorophenyl)-N-((3S,4R)-4-methyl-2-oxopyrrolidin-3-yl)thiazole-5-carboxamide] the IC50 was 1.02 to 10 nM. O=C(N[C@H]1CCNC1=O)c1cnc(-c2cc(F)cc(C(F)F)c2)s1 [Example 12, (S)-2-(3-(Difluoromethyl)-5-fluorophenyl)-N-(2-oxopyrrolidin-3-yl)thiazole-5-carboxamide] showed an IC50 of 1.02 to 10 nM. Compound C[C@@H]1CNC(=O)[C@H]1NC(=O)c1cnc(-c2cc(F)cc(C(F)F)c2)s1 [Example 13, 2-(3-(Difluoromethyl)-5-fluorophenyl)-N-((3S,4R)-4-methyl-2-oxopyrrolidin-3-yl)thiazole-5-carboxamide] has an IC50 of 1.02 to 10 nM. With NC(=O)CN1CC[C@H](NC(=O)c2cnc(-c3cc(F)cc(F)c3)s2)C1=O [Example 17, (S)-N-(1-(2-Amino-2-oxoethyl)-2-oxopyrrolidin-3-yl)-2-(3,5-difluorophenyl)thiazole-5-carboxamide] the IC50 was 102 to 1000 nM. CC1(C)CNC(=O)[C@H]1NC(=O)c1cnc(-c2cc(F)cc(Cl)c2)s1 [Example 19, (S)-2-(3-Chloro-5-fluorophenyl)-N-(4,4-dimethyl-2-oxopyrrolidin-3-yl)thiazole-5-carboxamide] gave an IC50 of 10.2 to 100 nM. O=C(N[C@H]1CC2(CC2)NC1=O)c1cnc(-c2cc(F)cc(Cl)c2)s1 [Example 21, (S)-2-(3-Chloro-5-fluorophenyl)-N-(5-oxo-4-azaspiro[2.4]heptan-6-yl)thiazole-5-carboxamide] showed an IC50 of 1.02 to 10 nM. In the case of O=C(N[C@@H]1CC2(CC2)NC1=O)c1cnc(-c2cc(F)cc(Cl)c2)s1 [Example 22, (R)-2-(3-Chloro-5-fluorophenyl)-N-(5-oxo-4-azaspiro[2.4]heptan-6-yl)thiazole-5-carboxamide], the IC50 is reported as 102 to 1000 nM. Work on CCC1(CC)CNC(=O)[C@@H]1NC(=O)c1cnc(-c2cc(F)cc(Cl)c2)s1 [Example 24, (R)-2-(3-Chloro-5-fluorophenyl)-N-(4,4-diethyl-2-oxopyrrolidin-3-yl)thiazole-5-carboxamide] yielded an IC50 of 1020 to 10000 nM. CCC1(CC)CNC(=O)[C@H]1NC(=O)c1cnc(-c2cc(F)cc(Cl)c2)s1 [Example 25, (S)-2-(3-Chloro-5-fluorophenyl)-N-(4,4-diethyl-2-oxopyrrolidin-3-yl)thiazole-5-carboxamide] gave an IC50 of 10.2 to 100 nM. For O=C(N[C@@H]1CCNC1=O)c1cnc(-c2cc(F)cc(Cl)c2)s1 [Example 26, (R)-2-(3-Chloro-5-fluorophenyl)-N-(2-oxopyrrolidin-3-yl)thiazole-5-carboxamide], the IC50 was 102 to 1000 nM. Work on O=C(N[C@@H]1CC2(CCC2)NC1=O)c1cnc(-c2cc(F)cc(Cl)c2)s1 [Example 28, (R)-2-(3-Chloro-5-fluorophenyl)-N-(6-oxo-5-azaspiro[3.4]octan-7-yl)thiazole-5-carboxamide] yielded an IC50 of 102 to 1000 nM. For O=C(N[C@H]1CC2(CCC2)NC1=O)c1cnc(-c2cc(F)cc(Cl)c2)s1 [Example 29, (S)-2-(3-Chloro-5-fluorophenyl)-N-(6-oxo-5-azaspiro[3.4]octan-7-yl)thiazole-5-carboxamide], the IC50 was 1.02 to 10 nM. Cc1nc(-c2cccc(Cl)c2)sc1C(=O)N[C@H]1CCNC1=O [Example 30, (S)-2-(3-Chlorophenyl)-4-methyl-N-(2-oxopyrrolidin-3-yl)thiazole-5-carboxamide] showed an IC50 of 10.2 to 100 nM. For Cc1cnn(-c2ncc(C(=O)N[C@H]3CCNC3=O)s2)c1 [Example 31, (S)-2-(4-Methyl-1H-pyrazol-1-yl)-N-(2-oxopyrrolidin-3-yl)thiazole-5-carboxamide], the IC50 was 1020 to 10000 nM. Cc1cn(-c2ncc(C(=O)N[C@H]3CCNC3=O)s2)cn1 [Example 32, (S)-2-(4-Methyl-1H-imidazol-1-yl)-N-(2-oxopyrrolidin-3-yl)thiazole-5-carboxamide] gave an IC50 of 1020 to 10000 nM. With O=C(N[C@H]1CCNC1=O)c1cnc(-c2ccccc2)s1 [Example 33, (S)-N-(2-Oxopyrrolidin-3-yl)-2-phenylthiazole-5-carboxamide] the IC50 was 10.2 to 100 nM. For C[C@H]1[C@H](C)NC(=O)[C@@H]1NC(=O)c1cnc(-c2cc(F)cc(Cl)c2)s1 [Example 35, 2-(3-Chloro-5-fluorophenyl)-N-((3R,4S,5S)-4,5-dimethyl-2-oxopyrrolidin-3-yl)thiazole-5-carboxamide], the IC50 was 102 to 1000 nM. For C[C@H]1[C@H](NC(=O)c2cnc(-c3cc(F)cc(Cl)c3)s2)C(=O)N[C@@H]1C [Example 36, 2-(3-Chloro-5-fluorophenyl)-N-((3S,4R,5R)-4,5-dimethyl-2-oxopyrrolidin-3-yl)thiazole-5-carboxamide], the IC50 was 10.2 to 100 nM. O=C(N[C@H]1CCNC1=O)c1cnc(-c2cccc(Br)c2)s1 [Example 37, (S)-2-(3-Bromophenyl)-N-(2-oxopyrrolidin-3-yl)thiazole-5-carboxamide] gave an IC50 of 10.2 to 100 nM. O=C(N[C@H]1CCNC1=O)c1cnc(-c2ccncc2)s1 [Example 38, (S)-N-(2-Oxopyrrolidin-3-yl)-2-(pyridin-4-yl)thiazole-5-carboxamide] gave an IC50 of 1020 to 10000 nM. O=C(N[C@H]1CCNC1=O)c1cnc(-c2ccccn2)s1 [Example 39, (S)-N-(2-Oxopyrrolidin-3-yl)-2-(pyridin-2-yl)thiazole-5-carboxamide] was tested, and the IC50 was 102 to 1000 nM. O=C(N[C@H]1CCNC1=O)c1cnc(-c2cccnc2)s1 [Example 40, (S)-N-(2-Oxopyrrolidin-3-yl)-2-(pyridin-3-yl)thiazole-5-carboxamide] gave an IC50 of 102 to 1000 nM. With C[C@H]1C[C@@H](NC(=O)c2cnc(-c3cc(F)cc(Cl)c3)s2)C(=O)N1 [Example 41, 2-(3-Chloro-5-fluorophenyl)-N-((3R,5S)-5-methyl-2-oxopyrrolidin-3-yl)thiazole-5-carboxamide] the IC50 was 10.2 to 100 nM. Cc1ccnc(-c2ncc(C(=O)N[C@H]3CCNC3=O)s2)n1 [Example 42, (S)-2-(4-Methylpyrimidin-2-yl)-N-(2-oxopyrrolidin-3-yl)thiazole-5-carboxamide] was tested, and the IC50 was 102 to 1000 nM. Work on N#Cc1cccc(-c2ncc(C(=O)N[C@H]3CCNC3=O)s2)c1 [Example 43, (S)-2-(3-Cyanophenyl)-N-(2-oxopyrrolidin-3-yl)thiazole-5-carboxamide] yielded an IC50 of 102 to 1000 nM. Work on Cc1ccc(-c2ncc(C(=O)N[C@H]3CCNC3=O)s2)cc1 [Example 44, (S)-N-(2-Oxopyrrolidin-3-yl)-2-(p-tolyl)thiazole-5-carboxamide] yielded an IC50 of 1020 to 10000 nM. O=C(N[C@H]1CCNC1=O)c1cnc(-c2cccc(F)c2)s1 [Example 45, (S)-2-(3-Fluorophenyl)-N-(2-oxopyrrolidin-3-yl)thiazole-5-carboxamide] gave an IC50 of 10.2 to 100 nM. In the case of Cc1cccc(-c2ncc(C(=O)N[C@H]3CCNC3=O)s2)n1 [Example 46, (S)-2-(6-Methylpyridin-2-yl)-N-(2-oxopyrrolidin-3-yl)thiazole-5-carboxamide], the IC50 is reported as 102 to 1000 nM.
